Experimental data: patent US7582655B2, “Antineoplastic compounds” (University of Saskatchewan, priority 2005, dated 2009)
Where two headings read alike, the source gives them in different places.

Assays:
HCT 116 = assay: Human tumour cell line panel, colon cancer HCT 116; type: cell-based
Description: (§1) In addition, both 5-fluorouracil and melphalan were evaluated towards 57 cell lines. […] MG MID is the average of the potencies of the compound to approximately 50 neoplastic cell lines.

HCT 15 = assay: Human tumour cell line panel, colon cancer HCT 15; type: cell-based; conditions: read-out: Colon cancer cells, IC50(μM) HCT 15
Description: as §1

RPMI 8226 = assay: Human tumour cell line panel, leukemic RPMI 8226; type: cell-based
Description: as §1

human tumour cell lines = assay: Panel of human tumour cell lines, all cell lines (mean graph midpoint); type: cell-based
Description: A number of compounds of the invention were further assessed against numerous human malignant cell lines. An average of 49 cell lines from nine different neoplastic diseases, namely leukemia, melanoma, non-small cell lung, colon, central nervous system, ovarian, renal, prostate, and breast cancers were employed.
as §1

[1] = tested on: human squamous cell carcinomas HSC-2; assay: Cytotoxicity CC50, MTT assay, HSC-2
Description: (§2) In addition, the compounds were evaluated against human squamous cell carcinomas (HSC-2 and HSC-4) and human promyelocytic leukemia neoplasms (HL-60) and compared with normal cells, i.e. human gingival fibroblasts (HGF), human pulp cells (HPC) and human periodontal ligament fibroblasts (HPLF).
(§3) MTT stands for 3-(4,5-dimethylthiazol-2-yl)-2,5-diphenyltetrazolium bromide). The cells were incubated with varying concentrations of the compounds along with untreated cells for 24 h and the absorbance at 540 nm measured. In the case of the HL-60 assay, the trypan blue exclusion method was followed and cell viability was determined using a haemocytometer. The CC50 values were obtained from dose-response curves (Sakagami, H.; Satoh, K.; Ohata, H.; Takahashi, H.; Yoshida, H.; Iida, M.; Kuribayashi, N.; Sakagami, T.; Momose, K.; Takeda, M. Anticancer Res. 1996, 16, 2635-2644). The general methods used in culturing the cells employed in these cytotoxicity experiments have been described previously (Kawase, M.; Sakagami, H.; Motohashi, N.; Hauer, H.; Chatterjee, S. S.; Spengler, G.; Vigyikanne, A. V.; Molnár, A.; Molnár, J. In Vivo 2005, 19, 705-712; and Takeuchi, R.; Hoshijima, H.; Onuki, N.; Nagasaka, H.; Chowdhury, S. A.; Kawase, M.; Sakagami, H. Anticancer Res. 2005, 25, 4037-4042). In brief, the malignant cells were obtained from Professor Nagumo, Showa University, Japan. The HGF, HPC and HPLF cells were prepared from human periodontal tissue after obtaining informed consent according to the guidelines of Meikai University Ethics Committee, Japan (No. 0206). Since normal cells have a short lifespan, cells at the 3-7 population doubling time were used. With the exception of the HL-60 neoplasm, the cells were cultured in DMEM containing heat-inactivated FBS (10%) at 37° C. in a humidified carbon dioxide atmosphere and subcultured by trypsinization. The HL-60 cells were cultured in a similar fashion except that RPMI 1640 media was employed.

human pulp cells (HPC) = assay: in vitro
Description: as §2, §3

[2] = tested on: HSC-2, HSC-4 and HL-60 malignant cells; assay: Average CC50 for malignant cells
Description: as §2, §3

HL 60 = assay: Human tumour cell line panel, leukemic HL 60; type: cell-based
Description: as §1

COLO 205 = assay: Human tumour cell line panel, colon cancer COLO 205; type: cell-based
Description: as §1

[3] = tested on: human gingival fibroblasts (HGF); assay: in vitro
Description: as §2, §3

[4] = tested on: human periodontal ligament fibroblasts (HPLF); assay: in vitro
Description: as §2, §3

SR = assay: Human tumour cell line panel, leukemic SR; type: cell-based
Description: as §1

[5] = tested on: human squamous cell carcinomas HSC-4; assay: Cytotoxicity CC50, MTT assay, HSC-4
Description: as §2, §3

HCC 2998 = assay: Human tumour cell line panel, colon cancer HCC 2998; type: cell-based
Description: as §1

[6] = tested on: murine L-5178 lymphoma cells transfected with the human MDR1 gene; assay: MDR reversal, rhodamine 123 fluorescence activity ratio; conditions: FAR >1 indicates MDR reversal
Description: A solution of the test compound (2 mg/ml, 10 μl) in dimethylsulfoxide was added to aliquots of the cell suspension and incubated at room temperature for 10 minutes. […] The cells were washed twice and resuspended in PBS (pH 7.4) after which the fluorescence was measured using a Beckton Dickinson FACScan instrument. The fluorescence of the cells was measured in treated MDR cells (F1), untreated MDR cells (F2), treated parental cells (F3) […] were obtained from the following equation, viz (F1/F2)/(F3/F4).

SW 620 = assay: Human tumour cell line panel, colon cancer SW 620; type: cell-based
Description: as §1

[7] = tested on: human promyelocytic leukemia HL-60; assay: Cytotoxicity CC50, trypan blue exclusion, HL-60
Description: as §2, §3

KM 12 = assay: Human tumour cell line panel, colon cancer KM 12; type: cell-based
Description: as §1

K 562 = assay: Human tumour cell line panel, leukemic K 562; type: cell-based
Description: as §1

[8] = 48 h; read-out: Colon cancer cells, IC50(μM) HCT 116
[9] = 48 h; read-out: Leukemic cells, IC50(μM) RPMI 8226
[10] = mean graph midpoint, average of 49 (38-59) human tumour cell lines, 48 h incubation, read-out: All cell lines IC50
[11] = 48 h; read-out: Leukemic cells, IC50(μM) HL 60
[12] = 48 h; read-out: Colon cancer cells, IC50(μM) COLO 205
[13] = 48 h; read-out: Leukemic cells, IC50(μM) SR
[14] = 48 h; read-out: Colon cancer cells, IC50(μM) HCC 2998
[15] = 48 h; read-out: Colon cancer cells, IC50(μM) SW 620
[16] = 48 h; read-out: Leukemic cells, IC50(μM) K 562
[17] = read-out: CC50(μM) HSC-2, 24 h, MTT, average of two determinations
[18] = read-out: CC50(μM) HPC, normal cells, 24 h, MTT
[19] = average CC50 for HSC-2, HSC-4 and HL-60 malignant cells
[20] = read-out: CC50(μM) HGF, normal cells, 24 h, MTT
[21] = read-out: CC50(μM) HPLF, normal cells, 24 h, MTT
[22] = read-out: CC50(μM) HSC-4, 24 h, MTT, average of two determinations
[23] = read-out: CC50(μM) HL-60, 24 h, trypan blue exclusion, average of two determinations
[24] = read-out: Colon cancer cells, IC50(μM) KM 12

| Compound | IC50 (HCT 116; [8]) [µM] | IC50 (HCT 15; 48 h) [µM] | IC50 (RPMI 8226; [9]) [µM] | IC50 (human tumour cell lines; [10]) [µM] | IC50 (HL 60; [11]) [µM] | IC50 (COLO 205; [12]) [µM] | IC50 (SR; [13]) [µM] | IC50 (HCC 2998; [14]) [µM] | IC50 (SW 620; [15]) [µM] | IC50 (K 562; [16]) [µM] | CC50 [1, 17] [µM] | CC50 (human pulp cells (HPC); [18]) [µM] | CC50(μM) ave [2, 19] [µM] | CC50 [3, 20] [µM] | CC50 [4, 21] [µM] | CC50 [5, 22] [µM] | CC50 [7, 23] [µM] | IC50 (KM 12; [24]) [µM] | other results |
| --- | --- | --- | --- | --- | --- | --- | --- | --- | --- | --- | --- | --- | --- | --- | --- | --- | --- | --- | --- |
| CC[N+](C)(CC)CCOc1ccc(C(=O)N2CC(=Cc3ccc(C)cc3)C(=O)C(=Cc3ccc(C)cc3)C2)cc1.[I-] [Compound 7d, 1-[4-(2-Diethylaminoethoxy)phenylcarbonyl]-3,5-bis(4-methylphenylmethylene)-4-piperidone methoiodide] | 14.1 | 9.33 | 1.26 | 7.76 | 11.8 | 8.91 | 22.9 | 6.17 | 10.5 | 1.35 |  |  |  |  |  |  |  |  | CC50 [1]: 17 µM; CC50 (human pulp cells (HPC)): 29 µM; CC50(μM) ave [2]: 17 µM; CC50 [3]: 34 µM; CC50 [4]: 8.3 µM; CC50 [5]: 17 µM; FAR value 4 μg/ml ([6]; compound 4 μg/ml): 1.93; FAR value 40 μg/ml ([6]; compound 40 μg/ml): 114; CC50 [7]: 16 µM; IC50 (KM 12; 48 h; read-out: Colon cancer cells, IC50(μM) KM 12): 9.33 µM |
| 3,5-bis(4-Chlorophenylmethylene)-1-[4-(2-dimethylaminoethoxy)phenyl-carbonyl]-4-piperidone hydrochloride hemihydrate [Compound 3b] | 6.03 | 0.295 | 0.098 | 1.91 | 1.41 | 1.7 | 0.126 | 0.263 | 0.209 | 0.331 | 2.3 | 11 | 1.9 | 23 | 4.3 | 1.8 | 1.7 | 1.74 |  |
| O=c1[nH]cc(F)c(=O)[nH]1 [5-Fluorouracil, 5-fluorouracil, reference compound] |  |  |  | > 29.5 |  |  |  |  |  |  |  |  |  |  |  |  |  |  | IC50 (HCT 116; Homo sapiens, HCT-116, 48 h; read-out: Colon cancer cells, IC50(μM) HCT 116): 2.04 µM; IC50 (HCT 15; Homo sapiens, HCT-15, 48 h): 6.61 µM; IC50 (RPMI 8226; Homo sapiens, RPMI-8226, 48 h; read-out: Leukemic cells, IC50(μM) RPMI 8226): 3.55 µM; S.I. (selectivity index) (human tumour cell lines; ratio of the IC50 figures for the least and most sensitive cell lines): >4365; IC50 (HL 60; Homo sapiens, HL-60, 48 h; read-out: Leukemic cells, IC50(μM) HL 60): 85.1 µM; IC50 (COLO 205; Homo sapiens, COLO 205, 48 h; read-out: Colon cancer cells, IC50(μM) COLO 205): 3.39 µM; IC50 (SR; Homo sapiens, SR, 48 h; read-out: Leukemic cells, IC50(μM) SR): 60.3 µM; IC50 (HCC 2998; Homo sapiens, HCC 2998, 48 h; read-out: Colon cancer cells, IC50(μM) HCC 2998): 5.75 µM; IC50 (SW 620; Homo sapiens, SW-620, 48 h; read-out: Colon cancer cells, IC50(μM) SW 620): 18.6 µM; IC50 (KM 12; Homo sapiens, KM12, 48 h; read-out: Colon cancer cells, IC50(μM) KM 12): 7.94 µM; IC50 (K 562; Homo sapiens, K562, 48 h; read-out: Leukemic cells, IC50(μM) K 562): 126 µM |
| N[C@@H](Cc1ccc(N(CCCl)CCCl)cc1)C(=O)O [Melphalan, reference compound] |  |  |  |  |  |  |  |  |  |  |  | > 200 | 40.7 | > 200 | > 200 |  |  |  | IC50 (HCT 116; Homo sapiens, HCT-116, 48 h, read-out: Colon cancer cells, IC50(μM) HCT 116): 30.2 µM; IC50 (RPMI 8226; Homo sapiens, RPMI-8226, 48 h, read-out: Leukemic cells, IC50(μM) RPMI 8226): 66.1 µM; IC50 (human tumour cell lines; Homo sapiens, 48 h, read-out: All cell lines IC50(μM)): 26.9 µM; CC50 ([1]; Homo sapiens, HSC-2, 24 h, read-out: CC50(μM) HSC-2): 35 µM; IC50 (HL 60; Homo sapiens, HL-60, 48 h, read-out: Leukemic cells, IC50(μM) HL 60): 2.04 µM; IC50 (COLO 205; Homo sapiens, COLO 205, 48 h, read-out: Colon cancer cells, IC50(μM) COLO 205): 66.1 µM; IC50 (SR; Homo sapiens, SR, 48 h, read-out: Leukemic cells, IC50(μM) SR): 1.86 µM; CC50 ([5]; Homo sapiens, HSC-4, 24 h, read-out: CC50(μM) HSC-4): 81 µM; IC50 (HCC 2998; Homo sapiens, HCC 2998, 48 h, read-out: Colon cancer cells, IC50(μM) HCC 2998): 41.7 µM; IC50 (SW 620; Homo sapiens, SW-620, 48 h, read-out: Colon cancer cells, IC50(μM) SW 620): 38.9 µM; CC50 ([7]; Homo sapiens, HL-60, 24 h, read-out: CC50(μM) HL-60): 6 µM; IC50 (KM 12; Homo sapiens, KM12, 48 h, read-out: Colon cancer cells, IC50(μM) KM 12): 43.7 µM; IC50 (K 562; Homo sapiens, K562, 48 h, read-out: Leukemic cells, IC50(μM) K 562): 43.7 µM |
| 1-[4-(2-Dimethylaminoethoxy)phenylcarbonyl]-3,5-bis(4-methylphenyl-methylene)-4-piperidone hydrochloride hemihydrate [Compound 3d] | 1.38 | 0.912 | 0.224 | 1.15 | 1.32 | 1.02 | 0.479 | 0.229 | 0.562 | 1.82 | 1.4 | 7.2 | 1.5 | 7.9 | 3.4 | 2.1 | 0.85 | 0.776 |  |
